Reference: ChEMBL document CHEMBL1156216, “Amide-based inhibitors of p38alpha MAP kinase. Part 2: design, synthesis and SAR of potent N-pyrimidyl amides” (Bioorg Med Chem Lett, 2010)

Legend:
[1] = target: Mitogen-activated protein kinase 14 (Homo sapiens, UniProt Q16539); assay: Inhibition of human p38alpha assessed as gamma-[32P]ATP incorporation after 60 mins by scintillation counting
Blood = assay: Antiinflammatory activity against LPS-induced TNFalpha production in human diluted whole blood administered 15 mins before LPS treatment after 2 hrs by ELISA; format: functional, tissue-based
Cytochrome P450 3A4 = Cytochrome P450 3A4 (Homo sapiens, UniProt P08684); assay: Inhibition of CYP3A4 after 30 mins by fluorescence assay; format: ADME; settings: read-out: INH
Chain of Cytochrome P450 3A4 (P08684 whole entry): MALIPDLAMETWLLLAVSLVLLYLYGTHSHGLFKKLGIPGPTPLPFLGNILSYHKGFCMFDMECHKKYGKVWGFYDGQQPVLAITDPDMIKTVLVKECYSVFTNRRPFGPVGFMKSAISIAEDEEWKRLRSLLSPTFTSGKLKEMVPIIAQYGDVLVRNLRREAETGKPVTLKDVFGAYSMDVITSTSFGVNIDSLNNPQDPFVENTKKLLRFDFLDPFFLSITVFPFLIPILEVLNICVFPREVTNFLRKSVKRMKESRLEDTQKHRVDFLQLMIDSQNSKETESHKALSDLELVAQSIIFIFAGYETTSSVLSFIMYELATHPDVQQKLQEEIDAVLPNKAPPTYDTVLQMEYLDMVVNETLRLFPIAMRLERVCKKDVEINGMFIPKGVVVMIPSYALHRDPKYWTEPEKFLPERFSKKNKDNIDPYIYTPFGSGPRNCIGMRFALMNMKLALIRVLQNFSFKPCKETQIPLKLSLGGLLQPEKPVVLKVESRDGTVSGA

Chain of Mitogen-activated protein kinase 14 (Q16539 whole entry): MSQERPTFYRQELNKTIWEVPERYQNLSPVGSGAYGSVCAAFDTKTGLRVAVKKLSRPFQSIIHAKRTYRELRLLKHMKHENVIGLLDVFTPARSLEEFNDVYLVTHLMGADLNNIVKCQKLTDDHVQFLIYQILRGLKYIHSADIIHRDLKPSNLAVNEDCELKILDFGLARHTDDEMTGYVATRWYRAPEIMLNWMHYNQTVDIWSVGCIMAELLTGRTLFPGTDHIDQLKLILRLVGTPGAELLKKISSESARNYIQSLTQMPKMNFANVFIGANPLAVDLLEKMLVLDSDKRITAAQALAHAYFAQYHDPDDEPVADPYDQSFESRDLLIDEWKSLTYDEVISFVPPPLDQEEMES

CC(C)Nc1nccc(N(CCCCN)C(=O)c2ccc3c(c2)CCO3)n1
IC50 [1]: 0.017 µM
IC50 (Blood): 0.09 µM
IC50 (Cytochrome P450 3A4): 3.12 µM

C[C@H](Nc1nccc(N(CC2CCNCC2)C(=O)c2ccc3c(c2)CCO3)n1)c1ccccc1
IC50 [1]: 0.054 µM
IC50 (Blood): 0.015 µM
IC50 (Cytochrome P450 3A4): 0.094 µM

C[C@H](Nc1nccc(N(CC2CCCNC2)C(=O)c2ccc3c(c2)CCO3)n1)c1ccccc1 (stereo partly drawn)
IC50 [1]: > 10 µM

C[C@H](Nc1nccc(N(CC2CCN(C(N)=O)CC2)C(=O)c2ccc3c(c2)CCO3)n1)c1ccccc1
IC50 [1]: 0.711 µM
IC50 (Blood): 0.524 µM

CC(C)CN(C(=O)c1ccc2c(c1)CCO2)c1ccnc(N[C@@H](C)c2ccccc2)n1
IC50 [1]: 0.462 µM
IC50 (Blood): 2.09 µM

C[C@H](Nc1nccc(N(CC2CC2)C(=O)c2ccc3c(c2)CCO3)n1)c1ccccc1
IC50 [1]: 0.165 µM
IC50 (Blood): 0.704 µM

COCCN(C(=O)c1ccc2c(c1)CCO2)c1ccnc(N[C@@H](C)c2ccccc2)n1
IC50 [1]: 0.345 µM
IC50 (Blood): > 10 µM

C[C@H](Nc1nccc(N(CC2CCOCC2)C(=O)c2ccc3c(c2)CCO3)n1)c1ccccc1
IC50 [1]: 0.158 µM
IC50 (Blood): > 10 µM

CCN(C(=O)c1ccc(F)c(C)c1)c1ccnc(N[C@@H](C)c2ccccc2)n1
IC50 [1]: 0.039 µM
IC50 (Blood): 0.178 µM

CCN(C(=O)c1cc(C)ccc1F)c1ccnc(N[C@@H](C)c2ccccc2)n1
IC50 [1]: 0.026 µM
IC50 (Blood): 0.058 µM

O=C(c1ccc2c(c1)CCO2)N(CC1CCNCC1)c1ccnc(NC2CCC(O)CC2)n1 (stereo not drawn)
IC50 [1]: 0.36 µM
IC50 (Blood): 3.29 µM
IC50 (Cytochrome P450 3A4): > 20 µM

NC1CCC(Nc2nccc(N(CC3CCNCC3)C(=O)c3ccc4c(c3)CCO4)n2)CC1 (stereo not drawn)
IC50 [1]: 0.4 µM
IC50 (Blood): > 10 µM
IC50 (Cytochrome P450 3A4): > 20 µM

CCN(C(=O)c1cn(C)c2ccccc12)c1ccnc(N[C@@H](C)c2ccccc2)n1
IC50 [1]: 0.154 µM
IC50 (Blood): > 10 µM

CCN(C(=O)c1cc2ccccc2o1)c1ccnc(N[C@@H](C)c2ccccc2)n1
IC50 [1]: 0.179 µM
IC50 (Blood): > 10 µM

CCN(C(=O)c1ccc2ccccc2c1)c1ccnc(N[C@@H](C)c2ccccc2)c1
IC50 (Blood): > 1 µM

CCN(C(=O)c1cccc2c1OCC2)c1ccnc(N[C@@H](C)c2ccccc2)n1
IC50 [1]: 0.09 µM
IC50 (Blood): 0.829 µM

CCN(C(=O)c1ccc2c(c1)CCC2)c1ccnc(N[C@@H](C)c2ccccc2)n1
IC50 [1]: 0.045 µM
IC50 (Blood): 0.3 µM

COC[C@H](C)Nc1nccc(N(CC2CCNCC2)C(=O)c2ccc3c(c2)CCO3)n1
IC50 [1]: 0.316 µM
IC50 (Blood): 0.46 µM
IC50 (Cytochrome P450 3A4): 2.02 µM

C[C@@H](CO)Nc1nccc(N(CCCCN)C(=O)c2ccc3c(c2)CCO3)n1
IC50 [1]: 0.31 µM
IC50 (Blood): 2.94 µM
IC50 (Cytochrome P450 3A4): 11.7 µM

NCCCCN(C(=O)c1ccc2c(c1)CCO2)c1ccnc(NC2CCC(O)CC2)n1 (stereo not drawn)
IC50 [1]: 0.011 µM
IC50 (Blood): 0.865 µM
IC50 (Cytochrome P450 3A4): > 20 µM

COC[C@H](C)Nc1nccc(N(CCCCN)C(=O)c2ccc3c(c2)CCO3)n1
IC50 [1]: 0.025 µM
IC50 (Blood): 0.048 µM
IC50 (Cytochrome P450 3A4): 2.65 µM

CC(C)(CO)Nc1nccc(N(CC2CCNCC2)C(=O)c2ccc3c(c2)CCO3)n1
IC50 [1]: 3.04 µM
IC50 (Blood): > 10 µM
IC50 (Cytochrome P450 3A4): 1.54 µM

CCC(COC)Nc1nccc(N(CC2CCNCC2)C(=O)c2ccc3c(c2)CCO3)n1 (stereo not drawn)
IC50 [1]: 0.53 µM
IC50 (Blood): 0.112 µM
IC50 (Cytochrome P450 3A4): 0.367 µM

O=C(c1ccc2c(c1)CCO2)N(CC1CCNCC1)c1ccnc(NC2CC2)n1
IC50 [1]: 0.6 µM
IC50 (Blood): 0.05 µM
IC50 (Cytochrome P450 3A4): 0.34 µM

CCN(C(=O)c1ccc2c(c1)CCCC2)c1ccnc(N[C@@H](C)c2ccccc2)n1
IC50 [1]: 0.18 µM
IC50 (Blood): > 1 µM

CCN(C(=O)c1cccc(Cl)c1)c1ccnc(N[C@@H](C)c2ccccc2)n1
IC50 [1]: 0.081 µM
IC50 (Blood): 0.533 µM

CCN(C(=O)c1ccc(Cl)cc1)c1ccnc(N[C@@H](C)c2ccccc2)n1
IC50 [1]: 0.313 µM
IC50 (Blood): > 10 µM

CCN(C(=O)c1cccc(C)c1)c1ccnc(N[C@@H](C)c2ccccc2)n1
IC50 [1]: 0.013 µM
IC50 (Blood): 0.14 µM

CCN(C(=O)c1ccc(C)c(C)c1)c1ccnc(N[C@@H](C)c2ccccc2)n1
IC50 [1]: 0.091 µM
IC50 (Blood): 0.143 µM

CCN(C(=O)c1cccc(C)c1C)c1ccnc(N[C@@H](C)c2ccccc2)n1
IC50 [1]: 0.081 µM
IC50 (Blood): 0.4 µM

CCc1cccc(C(=O)N(CC)c2ccnc(N[C@@H](C)c3ccccc3)n2)c1
IC50 [1]: 0.065 µM
IC50 (Blood): 0.152 µM

CCN(C(=O)c1cccc(C2CC2)c1)c1ccnc(N[C@@H](C)c2ccccc2)n1
IC50 [1]: 0.104 µM
IC50 (Blood): 0.349 µM

CCN(C(=O)c1ccc2c(c1)OCO2)c1ccnc(N[C@@H](C)c2ccccc2)n1
IC50 [1]: 0.164 µM
IC50 (Blood): > 1 µM

CCN(C(=O)c1ccccc1)c1ccnc(N[C@@H](C)c2ccccc2)n1
IC50 [1]: 0.193 µM
IC50 (Blood): > 10 µM

CCN(C(=O)c1ccccc1Cl)c1ccnc(N[C@@H](C)c2ccccc2)n1
IC50 [1]: 0.267 µM
IC50 (Blood): > 1 µM

CCN(C(=O)c1ccc2ccccc2c1)c1ccnc(N[C@@H](C)c2ccccc2)n1
IC50 [1]: 0.064 µM
IC50 (Blood): 0.187 µM

CCN(C(=O)c1ccc2c(c1)CCO2)c1ccnc(N[C@@H](C)c2ccccc2)n1
IC50 [1]: 0.017 µM
IC50 (Blood): 0.387 µM

CCN(C(=O)c1csc2ccccc12)c1ccnc(N[C@@H](C)c2ccccc2)n1
IC50 [1]: 0.188 µM
IC50 (Blood): > 1 µM

CCN(C(=O)c1ccc2occc2c1)c1ccnc(N[C@@H](C)c2ccccc2)n1
IC50 [1]: 0.071 µM
IC50 (Blood): 0.313 µM

CCN(C(=O)c1cccc(C(F)(F)F)c1)c1ccnc(N[C@@H](C)c2ccccc2)n1
IC50 [1]: 0.064 µM
IC50 (Blood): > 1 µM

C[C@H](Nc1nccc(N(CC2CCN(S(N)(=O)=O)CC2)C(=O)c2ccc3c(c2)CCO3)n1)c1ccccc1
IC50 [1]: 0.673 µM
IC50 (Blood): > 10 µM

C[C@H](Nc1nccc(N(CCCN)C(=O)c2ccc3c(c2)CCO3)n1)c1ccccc1
IC50 [1]: > 10 µM

C[C@H](Nc1nccc(N(CCCCN)C(=O)c2ccc3c(c2)CCO3)n1)c1ccccc1
IC50 [1]: 0.004 µM
IC50 (Blood): 0.009 µM
IC50 (Cytochrome P450 3A4): 0.18 µM

C[C@H](Nc1nccc(N(CCCCO)C(=O)c2ccc3c(c2)CCO3)n1)c1ccccc1
IC50 [1]: 0.096 µM
IC50 (Blood): 0.13 µM

C[C@H](Nc1nccc(N(CC2CCCCN2)C(=O)c2ccc3c(c2)CCO3)n1)c1ccccc1 (stereo partly drawn)
IC50 [1]: > 10 µM

C[C@H](Nc1nccc(N(CCCS(C)(=O)=O)C(=O)c2ccc3c(c2)CCO3)n1)c1ccccc1
IC50 [1]: 0.072 µM
IC50 (Blood): 0.564 µM

CC(C)Nc1nccc(N(CC2CCNCC2)C(=O)c2ccc3c(c2)CCO3)n1
IC50 [1]: 0.024 µM
IC50 (Blood): 0.088 µM
IC50 (Cytochrome P450 3A4): 2.9 µM
